Reference: ChEMBL document CHEMBL5236669, “Identification of pyrimidinyl piperazines as non-iminosugar glucocerebrosidase (GCase) pharmacological chaperones” (Bioorg Med Chem Lett, 2023)
≈ marks a conversion by molar mass, not a printed value.

Legend:
[1] = biological target: Lysosomal acid glucosylceramidase (Homo sapiens, UniProt P04062, N409S); assay: Chaperone activity at GCase N370S GBA mutant in patient derived fibroblast cell using 4-methylumbelliferyl-beta-D-glucopyranoside as substrate assessed as substrate cleavage by measuring concentration required for maximal response incubated for 5 days by fluorescence based assay
Chain of Lysosomal acid glucosylceramidase (P04062 40-536 N409S limits assumed): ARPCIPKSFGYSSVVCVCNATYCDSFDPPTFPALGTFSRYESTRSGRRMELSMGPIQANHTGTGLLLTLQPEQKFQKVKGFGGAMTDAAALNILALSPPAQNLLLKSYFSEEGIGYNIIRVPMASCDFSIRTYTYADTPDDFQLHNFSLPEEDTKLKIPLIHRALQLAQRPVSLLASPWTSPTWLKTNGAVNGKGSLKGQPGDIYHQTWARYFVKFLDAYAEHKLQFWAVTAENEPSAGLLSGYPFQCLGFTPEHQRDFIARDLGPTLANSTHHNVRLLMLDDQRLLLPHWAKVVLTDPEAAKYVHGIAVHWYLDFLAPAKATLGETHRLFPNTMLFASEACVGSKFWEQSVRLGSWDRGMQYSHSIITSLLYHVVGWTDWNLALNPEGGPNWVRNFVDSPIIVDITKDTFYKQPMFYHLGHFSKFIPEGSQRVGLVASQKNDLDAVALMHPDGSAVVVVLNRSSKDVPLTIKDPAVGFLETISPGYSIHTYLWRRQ

[2] = Solubility of the compound in PBS; format: physicochemical
[3] = Metabolic stability in human liver microsomes assessed as intrinsic clearance; format: ADME, Microsome; conditions: read-out: CLH
LLC-PK1 = assay: Corrected flux ratio of permeability in pig LLC-PK1 cells overexpressing MDR1 to pig LLC-PK1 cells; format: ADME, cell-based, Sus scrofa

Row | Compound | EC50 [1] | further results
1 | Cc1cc(N2CCN(C(=O)c3cc(-c4ccccc4)nc4c3cnn4C(C)C)CC2)nc(C(C)C)n1 | 90 nM | solubility [2]: 3 µM (≈ 1.45 µg/mL); CLint scaled [3]: 0.341 mL/min/kg; Ratio (LLC-PK1): 1.26
2 | Cc1cc(N2CCN(C(=O)c3ccccc3C)CC2)nc(C(C)C)n1 | 150 nM | 
3 | Cc1cc(N2CCN(C(=O)c3ccccc3C)CC2)nc(N2CCCCCC2)n1 | 29 nM | 
4 | Cc1cc(N2CCN(C(=O)c3ccncc3)CC2)nc(N2CCCC2)n1 | 6800 nM | 
5 | Cc1ccccc1C(=O)N1CCN(c2nc(N3CCCC3)nc3c2COC3)CC1 | 540 nM | 
6 | Cc1cc(N2CCN(C(=O)c3cnccn3)CC2)nc(N2CCCC2)n1 | 5300 nM | 
7 | Cc1cc(N2CCN(C(=O)c3ccc(C(C)(C)C)cc3)CC2)nc(N2CCCC2)n1 |  | solubility [2]: 68 µM (≈ 27.7 µg/mL); CLint scaled [3]: 0.172 mL/min/kg
8 | Cc1ccccc1C(=O)N1CCN(c2ccnc(N3CCCC3)n2)CC1 | 680 nM | 
9 | Cc1cc(N2CCN(C(=O)c3ccccc3C)CC2)nc(N2CCC2)n1 | 440 nM | 
10 | Cc1cc(N2CCN(C(=O)c3ccccc3C)CC2)nc(N2CCCC2)n1 | 75 nM | solubility [2]: 94 µM (≈ 34.4 µg/mL); CLint scaled [3]: 0.104 mL/min/kg; Ratio (LLC-PK1): 1.38
11 | CC(=O)N1CCN(c2cc(C)nc(N3CCCC3)n2)CC1 | 7100 nM | 
12 | Cc1cc(N2CCN(C(=O)c3ccccc3C)CC2)nc(N(C)C)n1 | 630 nM | 
13 | Cc1cc(N2CCN(C(=O)c3ccc(Cl)cc3)CC2)nc(N2CCCC2)n1 | 40 nM | 
14 | Cc1cc(N2CCN(C(=O)Cc3ccccc3)CC2)nc(N2CCCC2)n1 | 460 nM | 
15 | Cc1cc(N2CCN(C(=O)c3ccccc3C)CC2)nc(N2CCOCC2)n1 | 5200 nM | 
16 | Cc1cc(N2CCN(C(=O)c3ccccc3Cl)CC2)nc(N2CCCC2)n1 | 63 nM | 
17 | Cc1ccc(C(=O)N2CCN(c3cc(C)nc(N4CCCC4)n3)CC2)cc1 | 70 nM | 
18 | CC(C)(C)c1ccc(C(=O)N2CCN(c3nc(N4CCCC4)nc4c3CCC4)CC2)cc1 |  | solubility [2]: 2 µM (≈ 0.867 µg/mL)
19 | Cc1cc(N2CCN(C(=O)c3ccccc3C)CC2)nc(N2CCCCC2)n1 | 170 nM | 

Row | Compound | EC50 [1] | further results
20 | Cc1cc(N2CC3(CN(C(=O)c4ccccc4C)C3)C2)nc(N2CCCC2)n1 | 2100 nM | 
21 | Cc1cc(N2CCN(C(=O)c3ccccc3C)CC2)nc(N2CCC(F)(F)C2)n1 | 1400 nM | 
22 | Cc1ccccc1C(=O)N1CCN(c2nc(N3CCCC3)nc3ccccc23)CC1 | 79 nM | solubility [2]: 85 µM (≈ 34.1 µg/mL); CLint scaled [3]: 0.789 mL/min/kg; Ratio (LLC-PK1): 2.19
23 | CC(C)(C)c1ccc(C(=O)N2CCN(c3nc(N4CCCC4)nc4c3COC4)CC2)cc1 | 150 nM | 
24 | Cc1cc(N2CC3CN(C(=O)c4ccccc4C)CC3C2)nc(N2CCCC2)n1 (configuration not stated) | 660 nM | 
25 | Cc1ccccc1C(=O)N1CCN(c2nc(N3CCCC3)nc3c2CCC3)CC1 | 30 nM | 
26 | Cc1ccccc1C(=O)N1CCN(c2nc(N3CCCC3)nc3c2COCC3)CC1 | 410 nM | 
27 | Cc1ccccc1C(=O)N1CCN(c2cc(C(F)(F)F)nc(N3CCCC3)n2)CC1 | > 25000 nM | 
28 | Cc1cc(N2CCN(C(=O)c3ccccc3F)CC2)nc(N2CCCC2)n1 | 170 nM | 
29 | Cc1cc(N2CCN(C(=O)c3ccccc3C(F)(F)F)CC2)nc(N2CCCC2)n1 | 100 nM | 
30 | Cc1cc(N2CCN(C(=O)C3CCCCC3)CC2)nc(N2CCCC2)n1 | 360 nM | 
31 | Cc1cccc(C(=O)N2CCN(c3cc(C)nc(N4CCCC4)n3)CC2)c1 | 130 nM | 
32 | Cc1ccccc1C(=O)N1CCN(c2nc(N3CCCC3)ncc2C)CC1 | 120 nM | 
33 | Cc1ccccc1C(=O)N1CCN(c2cc(CO)nc(N3CCCC3)n2)CC1 | 220 nM | 
34 | Cc1cc(N2CCCN(C(=O)c3ccccc3C)CC2)nc(N2CCCC2)n1 | 1800 nM | 
35 | Cc1ccccc1C(=O)N1CCN(c2nc(N3CCCC3)nc(C)c2C)CC1 | 250 nM | 
36 | Cc1cc(N2CCN(C(=O)c3ccc(-c4ccccc4)cc3)CC2)nc(N2CCCC2)n1 | 58 nM | 
37 | Cc1cc(N2CCN(C(=O)c3ccccc3)CC2)nc(N2CCCC2)n1 | 72 nM | 
